The results in this text go back to US20120101134A1, “5-MEMBERED HETEROARYL DERIVATIVES USED AS SPHINGOSINE 1-PHOSPHATE RECEPTOR AGONISTS” (GLAXO GROUP LIMITED, priority 2009, published 2012).

Assay [1] concerns the target T1, human Endothelial Differentiation Gene 1 (EDG1) (Homo sapiens, UniProt P21453).
T1 construct: TEV protease site; Gal4-VP16 transcription factor; expressed in transfected cells; host or cells: EDG1-bla/U2OS (Tango GPCR-bla U2OS parental cell line)
The assay can be described thus: S1P1 Tango assay - 96 well format. It is filed as cell-based. The following applies: EDG1-bla/U2OS cells, agonist. How it is done:
S1P1 Tango assay—96 Well Format
Recombinant EDG1-bla/U2OS cells (contain the human Endothelial Differentiation Gene 1 (EDG1) linked to a TEV protease site and a Gal4-VP16 transcription factor stably integrated into the Tango GPCR-bla U2OS parental cell line) were suspended in assay medium (Invitrogen Freestyle Expression Medium) at a density of 312, 500 cells/ml. Add 100 μl/well of the assay medium to the cell-free control wells (column 12) and 100 μl/well of the cell suspension to the test compound wells (row 2-8, column 1-10), the unstimulated control wells (DMSO) (column 11), and stimulated control wells (SIP) (row 1, column 1-10) in a Corning black-well, clear bottom 96-well plate. Cells were incubated at 37° C., 5% CO2 for 44-48 h.
Add 25 μl of 5× stock solution of test compounds in assay medium with 0.5% DMSO to the test compound wells, 25 μl of 5× stock solution of agonist (S1P) in assay medium with 0.5% DMSO to the stimulated compound wells, and 25 μl of 5× stock solution of 0.5% DMSO in assay medium to the unstimulated control and cell-free control wells.
After incubation at 37° C., 5% CO2 for 5 h, 25 μl of 6× substrate mixture (6 μl Solution A (1 mg LiveBLAzer™-FRET B/G substrate (CCF4-AM) in 912 μl DMSO) plus 60 μl Solution B plus 934 μl Solution C) was added to each well and incubate at room temperature for 2 h in dark. The plate was finally read on EnVision for two emission channels (460 nm and 530 nm).
All test compounds were dissolved in DMSO at a concentration of 10 mM and were prepared in 100% DMSO using a 1 in 5 dilution step to provide 10 point dose response curves. The dilutions were transferred to the assay plates ensuring that the DMSO concentration was constant across the plate for all assays.
Calculate the blue/green emission ratio (460 nm/530 nm) for each well, by dividing the background-subtracted Blue emission values by the background-subtracted Green emission values. The dose response curve is based on sigmoidal dose-response model. […]

Assay [2] concerns the target T1, human Endothelial Differentiation Gene 1 (EDG1). The assay can be described thus: S1P1 Tango assay - 384 well format. It counts as cell-based. The following applies: EDG1-bla/U2OS cells, agonist. The method, then:
S1P1 Tango assay—384 Well Format
Recombinant EDG1-bla/U2OS cells (contain the human Endothelial Differentiation Gene 1 (EDG1) linked to a TEV protease site and a Gal4-VP16 transcription factor stably integrated into the Tango GPCR-bla U2OS parental cell line) were harvested from growth medium and passaged into assay medium (Invitrogen Freestyle Expression Medium). The cells were starved for 24 hours at 37° C., 5% CO2, harvested and resuspended in assay medium at a density of ˜200,000 cells/ml. All test compounds were dissolved in DMSO at a concentration of 10 mM and were prepared in 100% DMSO to provide 10 point dose response curves. Test compounds prepared by Bravo (Velocity11) were added to wells in columns 2-11 and 13-22; DMSO was added to wells in columns 12 and 23 as unstimulated controls and assay medium was added to wells in columns 1 and 24 as cell-free controls. An S1P1 agonist was added to wells in row 2, columns 2-11 as stimulated controls and test compounds were added to wells in row 2, columns 13-22 and rows 3-15, columns 2-11/13-22 (row 1 and 16 were empty and not used). Compounds in solution were added to the assay plate (Greiner 781090) using an Echo (Labcyte) dose-response program (50 nl/well). The unstimulated and cell-free controls were loaded with 50 nl/well pure DMSO to ensure that the DMSO concentration was constant across the plate for all assays.
50 μl of the cell suspension was added to each well in columns 2-23 of the plate (˜10,000 cells per well). 50 μl of assay medium was added to each well in the cell-free controls (columns 1 and 24). The cells were incubated overnight at 37° C./5% CO2.
10 μl of 6× substrate mixture (LiveBLAzer™-FRET B/G substrate (CCF4-AM) Cat #K1096 from Invitrogen, Inc.) was added to each well using Bravo and the plates incubated at room temperature for 2 h in the dark. The plate was finally read on EnVision using one excitation channel (409 nm) and two emission channels (460 nm and 530 nm).
The blue/green emission ratio (460 nm/530 nm) was calculated for each well, by dividing the background-subtracted Blue emission values by the background-subtracted Green emission values. The dose response curve is based on sigmoidal dose-response model. All ratio data was normalized based upon the maximum emission ratio of positive control and minimum emission ratio of negative control (DMSO) on each plate. The intrinsic activity (IA) of each compound would be the normalized percentage of its maximum response after curve fitting.

A value given as a limit tells only on which side of the number the result lay.

T1 sequence (P21453 whole entry, the tested form may be a part): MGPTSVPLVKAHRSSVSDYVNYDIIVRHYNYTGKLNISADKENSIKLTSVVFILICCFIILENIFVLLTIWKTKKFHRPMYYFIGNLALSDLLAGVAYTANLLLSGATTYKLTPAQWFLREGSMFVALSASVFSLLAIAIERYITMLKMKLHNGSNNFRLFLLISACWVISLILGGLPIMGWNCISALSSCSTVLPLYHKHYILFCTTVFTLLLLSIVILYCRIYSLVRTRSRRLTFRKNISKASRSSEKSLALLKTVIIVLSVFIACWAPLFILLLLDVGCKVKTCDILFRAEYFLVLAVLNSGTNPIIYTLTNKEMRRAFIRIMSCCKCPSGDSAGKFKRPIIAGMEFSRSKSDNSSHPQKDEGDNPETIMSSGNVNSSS

Usually EC50 stands for the concentration at which the effect is half-maximal. Read a low EC50 as an effect from little substance. `Cc1c(C[C@@H](C)C(=O)O)cccc1-c1noc(-c2cnc(OC(C)C)c(Cl)c2)n1` [Example 3, (2R)-3-[3-(5-{5-chloro-6-[(1-methylethyl)oxy]-3-pyridinyl}-1,2,4-oxadiazol-3-yl)-2-methylphenyl]-2-methylpropanoic acid] showed a 50% effective concentration (EC50) in assay [1] greater than 1000 nM.

On to `Cc1c(CCCC(=O)O)cccc1-c1noc(-c2cnc(OC(C)C)c(Cl)c2)n1` [Example 4, 4-[3-(5-{5-chloro-6-[(1-methylethyl)oxy]-3-pyridinyl}-1,2,4-oxadiazol-3-yl)-2-methylphenyl]butanoic acid], for which the half-maximal effective concentration (EC50) in assay [1] is greater than 1000 nM.

Regarding `CC(C)Oc1ccc(-c2nc(-c3ccnc(CCCC(=O)O)c3)no2)cc1C#N` [Example 21, 4-[4-(5-{3-cyano-4-[(1-methylethyl)oxy]phenyl}-1,2,4-oxadiazol-3-yl)-2-pyridinyl]butanoic acid], in assay [1], the EC50 was greater than 1000 nM.

The molecule `CCc1c(CCCC(=O)O)cccc1-c1cnc(-c2ccc(OC(C)C)c(C#N)c2)s1` [Example 50, 4-[3-(2-{3-cyano-4-[(1-methylethyl)oxy]phenyl}-1,3-thiazol-5-yl)-2-ethylphenyl]butanoic acid] showed an EC50 in assay [2] of no more than 10 nM.

The molecule `COc1c(CCCC(=O)O)cc(F)cc1-c1cnc(-c2ccc(OC(C)C)c(C#N)c2)s1` [Example 51, 4-[3-(2-{3-cyano-4-[(1-methylethyl)oxy]phenyl}-1,3-thiazol-5-yl)-5-fluoro-2-(methyloxy)phenyl]butanoic acid] gave a 50% effective concentration (EC50) in assay [2] of no more than 10 nM.

`CCc1c(CCCC(=O)O)cccc1-c1cnc(-c2ccc(OC(C)C)c(Cl)c2)s1` [Example 52, 4-[3-(2-{3-chloro-4-[(1-methylethyl)oxy]phenyl}-1,3-thiazol-5-yl)-2-ethylphenyl]butanoic acid] had an EC50 in assay [2] of no more than 10 nM.

Molecule `CCc1c(CCN(C)CC(=O)O)cccc1-c1cnc(-c2ccc(OC(C)C)c(C#N)c2)s1` [Example 53, N-{2-[3-(2-{3-cyano-4-[(1-methylethyl)oxy]phenyl}-1,3-thiazol-5-yl)-2-ethylphenyl]ethyl}-N-methylglycine] gave an EC50 in assay [2] of no more than 10 nM.

Molecule `CCc1c(CN(C)CC(=O)O)cccc1-c1cnc(-c2ccc(OC(C)C)c(Cl)c2)s1` [Example 54, N-{[3-(2-{3-chloro-4-[(1-methylethyl)oxy]phenyl}-1,3-thiazol-5-yl)-2-ethylphenyl]methyl}-N-methylglycine] had an EC50 in assay [2] of no more than 1000 nM.

As to `CCc1c(CN(C)CC(=O)O)cccc1-c1cnc(-c2ccc(OC(C)C)c(C#N)c2)s1` [Example 55, N-{[3-(2-{3-cyano-4-[(1-methylethyl)oxy]phenyl}-1,3-thiazol-5-yl)-2-ethylphenyl]methyl}-N-methylglycine], in assay [2], the EC50 is no more than 100 nM.

In assay [2], `CCc1c(CCN(C)CC(=O)O)cccc1-c1cnc(-c2ccc(OC(C)C)c(Cl)c2)s1` [Example 56, N-{2-[3-(2-{3-chloro-4-[(1-methylethyl)oxy]phenyl}-1,3-thiazol-5-yl)-2-ethylphenyl]ethyl}-N-methylglycine] had a concentration for a half-maximal effect (EC50) of no more than 10 nM.

In assay [2], `CCc1c(CN(C)CCC(=O)O)cccc1-c1cnc(-c2ccc(OC(C)C)c(C#N)c2)s1` [Example 57, N-{[3-(2-{3-cyano-4-[(1-methylethyl)oxy]phenyl}-1,3-thiazol-5-yl)-2-ethylphenyl]methyl}-N-methyl-β-alanine] had an EC50 of no more than 100 nM.

Take `CCc1c(-c2cnc(-c3ccc(OC(C)C)c(C#N)c3)s2)ccnc1CCCC(=O)O` [Example 58, 4-[4-(2-{3-cyano-4-[(1-methylethyl)oxy]phenyl}-1,3-thiazol-5-yl)-3-ethyl-2-pyridinyl]butanoic acid]: the 50% effective concentration (EC50) in assay [2] is no more than 1000 nM.

On to `CCc1c(CCN(C)CCC(=O)O)cccc1-c1cnc(-c2ccc(OC(C)C)c(C#N)c2)s1` [Example 59, N-{2-[3-(2-{3-cyano-4-[(1-methylethyl)oxy]phenyl}-1,3-thiazol-5-yl)-2-ethylphenyl]ethyl}-N-methyl-b-alanine], for which the half-maximal effective concentration (EC50) in assay [2] was no more than 1 nM.
